Laboratory results: patent publication US20250289790A1, “UV LIGHT STABILIZERS” (BASF SE, priority 2022, published 2025)

Assay: Solubility at room temperature in xylene / toluene
Format: physicochemical

Compound: CC(C)(C)c1cc(CCC(=O)OCC(COC(=O)CCc2cc(-n3nc4ccc(Cl)cc4n3)c(O)c(C(C)(C)C)c2)(COC(=O)CCc2cc(-n3nc4ccc(Cl)cc4n3)c(O)c(C(C)(C)C)c2)COC(=O)CCc2cc(-n3nc4ccc(Cl)cc4n3)c(O)c(C(C)(C)C)c2)cc(-n2nc3ccc(Cl)cc3n2)c1O [Example C3]
- soluble in xylene: less than 1%
- Solubility at room temperature [g] xylene (room temperature): 2 g
